# Source: ChEMBL document CHEMBL1127975, “Balanced angiotensin II receptor antagonists. II.1,2 4-aminomethyl- and acylaminomethylimidazoles” (Bioorg Med Chem Lett, 1994)
# How the values were obtained:
# [1] = biological target: T1, Type-2 angiotensin II receptor (Homo sapiens, UniProt P50052); experiment: In vitro binding affinity of compound against angiotensin II AT-2 receptor
# T1 sequence (P50052 whole entry): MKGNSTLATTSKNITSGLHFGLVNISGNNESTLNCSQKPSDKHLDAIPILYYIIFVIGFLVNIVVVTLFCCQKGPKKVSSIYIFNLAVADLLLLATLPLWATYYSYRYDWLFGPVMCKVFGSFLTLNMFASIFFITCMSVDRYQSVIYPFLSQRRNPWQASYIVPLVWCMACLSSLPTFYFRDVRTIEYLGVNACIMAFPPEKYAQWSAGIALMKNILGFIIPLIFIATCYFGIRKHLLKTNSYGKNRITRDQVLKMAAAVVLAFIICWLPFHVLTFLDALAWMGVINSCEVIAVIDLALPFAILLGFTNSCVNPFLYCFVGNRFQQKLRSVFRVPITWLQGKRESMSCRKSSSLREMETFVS
# [2] = biological target: T2, Type-1 angiotensin II receptor (Homo sapiens, UniProt P30556); experiment: In vitro binding affinity of compound against Angiotensin II receptor, type 1
# T2 sequence (P30556 whole entry): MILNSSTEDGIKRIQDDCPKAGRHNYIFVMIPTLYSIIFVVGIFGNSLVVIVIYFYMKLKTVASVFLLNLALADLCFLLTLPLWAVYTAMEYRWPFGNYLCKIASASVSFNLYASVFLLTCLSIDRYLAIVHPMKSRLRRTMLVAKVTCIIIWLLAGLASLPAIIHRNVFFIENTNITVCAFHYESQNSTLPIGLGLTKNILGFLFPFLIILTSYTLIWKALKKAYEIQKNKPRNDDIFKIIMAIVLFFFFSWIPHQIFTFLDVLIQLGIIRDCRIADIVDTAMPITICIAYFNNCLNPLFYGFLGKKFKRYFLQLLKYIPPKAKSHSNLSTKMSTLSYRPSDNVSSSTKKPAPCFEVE
# Rattus norvegicus [3] = experiment: Compound was tested for its antihypertensive activity after intravenous administration to renal hypertensive rats; format: functional
# Rattus norvegicus [4] = experiment: Compound was tested for its antihypertensive activity after oral administration to renal hypertensive rats; format: functional
Structure (SMILES),IC50 [1] [nM],IC50 [2] [nM],ED30 (Rattus norvegicus [3]) [mg/kg],ED30 (Rattus norvegicus [4]) [mg/kg]
CCCc1nc(CN(Cc2ccccc2)C(=O)OCC(C)C)c(C(=O)O)n1Cc1ccc(-c2ccccc2-c2nn[nH]n2)cc1,800,20,–,–
CCCc1nc(CNC(=O)C(c2ccccc2)c2ccccc2)c(C(=O)O)n1Cc1ccc(-c2ccccc2-c2nn[nH]n2)cc1,600,10,–,–
CCCc1nc(CN2CCN(c3ccccn3)CC2)c(C(=O)O)n1Cc1ccc(-c2ccccc2-c2nn[nH]n2)cc1F,200,0.9,–,–
CCCc1nc(C(=O)N2CCN(c3ccccn3)CC2)c(C(=O)O)n1Cc1ccc(-c2ccccc2-c2nnn[nH]2)cc1,700,2,0.018,~3
CCCCN(Cc1ccccc1)Cc1nc(CCC)n(Cc2ccc(-c3ccccc3-c3nnn[nH]3)cc2)c1C(=O)O,90,3,0.04,3
CCCCN(Cc1nc(CCC)n(Cc2ccc(-c3ccccc3S(=O)(=O)NC(=O)CCC)cc2)c1C(=O)O)C(=O)CCC,90,2,0.18,1.65
CCCc1nc(CN2CCN(c3ccc(F)cc3)CC2)c(C(=O)O)n1Cc1ccc(-c2ccccc2-c2nn[nH]n2)cc1,80,3,–,–
CCCc1nc(CN2CCN(c3ccccc3Cl)CC2)c(C(=O)O)n1Cc1ccc(-c2ccccc2-c2nnn[nH]2)cc1,600,2,–,–
CCCc1nc(CN(Cc2ccccc2)C(=O)OC(C)(C)C)c(C(=O)O)n1Cc1ccc(-c2ccccc2-c2nn[nH]n2)cc1,1000,9,–,–
CCCc1nc(CN2CCN(c3ccccc3OC)CC2)c(C(=O)O)n1Cc1ccc(-c2ccccc2-c2nnn[nH]2)cc1,3000,2,–,–
CCCCCC(=O)NS(=O)(=O)c1ccccc1-c1ccc(Cn2c(CCC)nc(CN3CCN(c4ccccn4)CC3)c2C(=O)O)cc1,20,6,0.13,> 10
CCCc1nc(CN2CCN(c3ccccc3)CC2)c(C(=O)O)n1Cc1ccc(-c2ccccc2-c2nnn[nH]2)cc1,50,5,0.004,> 3
CCCCOC(=O)NS(=O)(=O)c1ccccc1-c1ccc(Cn2c(CCC)nc(CN3CCN(c4ccccn4)CC3)c2C(=O)O)cc1,90,6,–,–
CCCc1nc(CN2CCN(c3ccccn3)CC2)c(C(=O)O)n1Cc1ccc(-c2ccccc2-c2nn[nH]n2)cc1,60,4.2,0.003,> 3
CCCc1nc(CN(CC(=O)O)C(=O)C(c2ccccc2)c2ccccc2)c(C(=O)O)n1Cc1ccc(-c2ccccc2-c2nn[nH]n2)cc1,7000,100,–,–
CCCc1nc(CN2CCN(c3ncccn3)CC2)c(C(=O)O)n1Cc1ccc(-c2ccccc2-c2nn[nH]n2)cc1,80,2,–,–
CCCc1nc(CN2CCN(c3ccccc3)C[C@H]2Cc2ccccc2)c(C(=O)O)n1Cc1ccc(-c2ccccc2-c2nn[nH]n2)cc1,1000,10,–,–

Structure (SMILES),IC50 [1] [nM],IC50 [2] [nM],ED30 (Rattus norvegicus [3]) [mg/kg],ED30 (Rattus norvegicus [4]) [mg/kg]
CCCc1nc(CN2CCN(c3ccccc3)C[C@H]2C)c(C(=O)O)n1Cc1ccc(-c2ccccc2-c2nnn[nH]2)cc1,70,2,–,–
CCCc1nc(CN2CCN(C(=O)C3CC3)CC2)c(C(=O)O)n1Cc1ccc(-c2ccccc2-c2nnn[nH]2)cc1,6000,10,–,–
CCCc1nc(CN2CCN(c3ccccn3)CC2)c(C(=O)O)n1Cc1ccc(-c2ccccc2S(=O)(=O)NC(=O)C2CC2)cc1,600,10,–,–
CCCc1nc(CN2CCN(c3ccccn3)CC2)c(C=O)n1Cc1ccc(-c2ccccc2-c2nn[nH]n2)cc1,1000,2,–,–
CCc1nc(CN2CCN(c3ccccn3)CC2)c(C(=O)O)n1Cc1ccc(-c2ccccc2-c2nnn[nH]2)cc1,500,20,–,–
CCCc1nc(CN2CCN(C(=O)C(c3ccccc3)c3ccccc3)CC2)c(C(=O)O)n1Cc1ccc(-c2ccccc2-c2nn[nH]n2)cc1,1000,10,–,–
CCCc1nc(CNC(=O)OC(C)(C)C)c(C(=O)O)n1Cc1ccc(-c2ccccc2-c2nn[nH]n2)cc1,4000,6,–,–
CCCc1nc(CN2CCC(c3ccccc3)CC2)c(C(=O)O)n1Cc1ccc(-c2ccccc2-c2nn[nH]n2)cc1,400,2,–,–
CCCc1nc(CN2CCN(C(=O)c3ccccc3)CC2)c(C(=O)O)n1Cc1ccc(-c2ccccc2-c2nnn[nH]2)cc1,> 10000,5,–,–
CCCc1nc(CN(Cc2ccccc2)C(=O)c2ccccc2)c(C(=O)O)n1Cc1ccc(-c2ccccc2S(=O)(=O)NC(=O)OCC(C)C)cc1,100,8,–,–
CCCCCN(CCCCC)Cc1nc(CCC)n(Cc2ccc(-c3ccccc3-c3nnn[nH]3)cc2)c1C(=O)O,200,2,–,–
CCCc1nc(CN2CCN(c3ccccn3)CC2)c(CO)n1Cc1ccc(-c2ccccc2-c2nn[nH]n2)cc1,> 10000,10,–,–
CCCCc1nc(CN2CCN(c3ccccn3)CC2)c(C(=O)O)n1Cc1ccc(-c2ccccc2-c2nn[nH]n2)cc1,700,2,–,–
CCCc1nc(CN2CCN(c3ccccn3)CC2)c(C(=O)O)n1Cc1ccc(-c2ccccc2S(=O)(=O)NC(=O)c2ccccc2)cc1,500,6,–,–
CCCc1nc(CN(Cc2ccccc2)C(=O)Nc2ccccc2)c(C(=O)O)n1Cc1ccc(-c2ccccc2-c2nnn[nH]2)cc1,300,2,–,–
CCCc1nc(CN(Cc2ccccc2)C(=O)Cc2ccccc2)c(C(=O)O)n1Cc1ccc(-c2ccccc2-c2nn[nH]n2)cc1,400,20,–,–
CCCCc1nc(Cl)c(CO)n1Cc1ccc(-c2ccccc2-c2nnn[n-]2)cc1.[K+] [LOSARTAN POTASSIUM],–,–,0.78,0.59
